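Protocol summary: plate cells (96-well), add compound at 5 concentrations, incubate 48 h, interpolate endpoints linearly. Abbreviation: GI50, concentration required for 50% inhibition of growth. The concentration for full growth arrest is given as TGI.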
Assays:
Test in all cases: growth of human tumour cells (NCI), 48 h
[1] = test system: NCI-H23 lung
[2] = test system: NCI-H460 lung
[3] = test system: NCI-H522 lung
[4] = test system: NCI/ADR-RES ovarian
[5] = test system: OVCAR-3 ovarian
[6] = test system: OVCAR-4 ovarian
[7] = test system: OVCAR-5 ovarian
[8] = test system: OVCAR-8 ovarian
[9] = test system: PC-3 prostate
[10] = test system: RPMI-8226 leukemia
[11] = test system: RXF 393 renal
[12] = test system: SF-268 CNS
[13] = test system: SF-295 CNS
[14] = test system: SF-539 CNS
[15] = test system: SK-MEL-2 melanoma
[16] = test system: SK-MEL-28 melanoma
[17] = test system: SK-MEL-5 melanoma
[18] = test system: SK-OV-3 ovarian
[19] = test system: SN12C renal
[20] = test system: SNB-19 CNS
[21] = test system: SNB-75 CNS
[22] = test system: SR leukemia
[23] = test system: SW-620 colon
[24] = test system: T-47D breast
[25] = test system: TK-10 renal
[26] = test system: U251 CNS
[27] = test system: UACC-257 melanoma
[28] = test system: UACC-62 melanoma
[29] = test system: UO-31 renal

**Q.** `C#CC(=O)N(c1ccc(OC)cc1OC)C(C(=O)NCC(=O)OCC)c1cccs1` (stereo not drawn) was tested. Which GI50 [1] did it give?
**A.** 257 nM

**Q.** What about the TGI [1] of the same compound?
**A.** 1070 nM

**Q.** And the GI50 [2]?
**A.** 717 nM

**Q.** And the TGI [2]?
**A.** 6840 nM

**Q.** What about the GI50 [3] of the same compound?
**A.** 83.1 nM

**Q.** What about the TGI [3] of the same compound?
**A.** 258 nM

**Q.** What about the GI50 [4] of the same compound?
**A.** 177 nM

**Q.** What about the TGI [4] of the same compound?
**A.** 813 nM

**Q.** And the GI50 [5]?
**A.** 160 nM

**Q.** What about the TGI [5] of the same compound?
**A.** 528 nM

**Q.** And the GI50 [6]?
**A.** 1750 nM

**Q.** What about the TGI [6] of the same compound?
**A.** 3970 nM

**Q.** And the GI50 [7]?
**A.** 574 nM

**Q.** And the TGI [7]?
**A.** 2330 nM

**Q.** And the GI50 [8]?
**A.** 970 nM

**Q.** And the TGI [8]?
**A.** 17900 nM

**Q.** What about the GI50 [9] of the same compound?
**A.** 871 nM

**Q.** What about the TGI [9] of the same compound?
**A.** 7880 nM

**Q.** And the GI50 [10]?
**A.** 44.9 nM

**Q.** What about the TGI [10] of the same compound?
**A.** 193 nM

**Q.** What about the GI50 [11] of the same compound?
**A.** 271 nM

**Q.** What about the TGI [11] of the same compound?
**A.** 1010 nM

**Q.** What about the GI50 [12] of the same compound?
**A.** 326 nM

**Q.** What about the TGI [12] of the same compound?
**A.** 1170 nM

**Q.** What about the GI50 [13] of the same compound?
**A.** 183 nM

**Q.** What about the TGI [13] of the same compound?
**A.** 362 nM

**Q.** And the GI50 [14]?
**A.** 56.7 nM

**Q.** And the TGI [14]?
**A.** 110 nM

**Q.** And the GI50 [15]?
**A.** 11000 nM

**Q.** What about the TGI [15] of the same compound?
**A.** 26200 nM

**Q.** What about the GI50 [16] of the same compound?
**A.** 2260 nM

**Q.** And the TGI [16]?
**A.** 6030 nM

**Q.** What about the GI50 [17] of the same compound?
**A.** 8820 nM

**Q.** And the TGI [17]?
**A.** 21300 nM

**Q.** And the GI50 [18]?
**A.** 1820 nM

**Q.** What about the TGI [18] of the same compound?
**A.** 3400 nM

**Q.** And the GI50 [19]?
**A.** 2210 nM

**Q.** And the TGI [19]?
**A.** 16500 nM

**Q.** And the GI50 [20]?
**A.** 2420 nM

**Q.** And the TGI [20]?
**A.** 8080 nM

**Q.** And the GI50 [21]?
**A.** 152 nM

**Q.** And the TGI [21]?
**A.** 399 nM

**Q.** And the GI50 [22]?
**A.** 22 nM

**Q.** What about the TGI [22] of the same compound?
**A.** 52.8 nM

**Q.** And the GI50 [23]?
**A.** 1270 nM

**Q.** What about the TGI [23] of the same compound?
**A.** 3050 nM

**Q.** And the GI50 [24]?
**A.** 2010 nM

**Q.** What about the TGI [24] of the same compound?
**A.** 5100 nM

**Q.** What about the GI50 [25] of the same compound?
**A.** 3960 nM

**Q.** What about the TGI [25] of the same compound?
**A.** 10700 nM

**Q.** And the GI50 [26]?
**A.** 445 nM

**Q.** What about the TGI [26] of the same compound?
**A.** 1260 nM

**Q.** What about the GI50 [27] of the same compound?
**A.** 3290 nM

**Q.** And the TGI [27]?
**A.** 13000 nM

**Q.** And the GI50 [28]?
**A.** 1470 nM

**Q.** What about the TGI [28] of the same compound?
**A.** 5810 nM

**Q.** What about the GI50 [29] of the same compound?
**A.** 16.7 nM

**Q.** What about the TGI [29] of the same compound?
**A.** 33.9 nM
